Results on 22 compounds are retold here after patent US10435399B2, “HDAC6 inhibitory heterocyclic compound” (TAKEDA PHARMACEUTICAL COMPANY LIMITED, priority 2017, dated 2019).

Structures are written as SMILES.

The assay has as its target T1, HDAC6 enzyme (Homo sapiens, UniProt Q9UBN7).
T1 construct: transducing full length HDAC6 gene into Sf-9 insect cells; GST; purchased SignalChem; host or cells: Sf-9 insect cells
T1 sequence (Q9UBN7 1-1215): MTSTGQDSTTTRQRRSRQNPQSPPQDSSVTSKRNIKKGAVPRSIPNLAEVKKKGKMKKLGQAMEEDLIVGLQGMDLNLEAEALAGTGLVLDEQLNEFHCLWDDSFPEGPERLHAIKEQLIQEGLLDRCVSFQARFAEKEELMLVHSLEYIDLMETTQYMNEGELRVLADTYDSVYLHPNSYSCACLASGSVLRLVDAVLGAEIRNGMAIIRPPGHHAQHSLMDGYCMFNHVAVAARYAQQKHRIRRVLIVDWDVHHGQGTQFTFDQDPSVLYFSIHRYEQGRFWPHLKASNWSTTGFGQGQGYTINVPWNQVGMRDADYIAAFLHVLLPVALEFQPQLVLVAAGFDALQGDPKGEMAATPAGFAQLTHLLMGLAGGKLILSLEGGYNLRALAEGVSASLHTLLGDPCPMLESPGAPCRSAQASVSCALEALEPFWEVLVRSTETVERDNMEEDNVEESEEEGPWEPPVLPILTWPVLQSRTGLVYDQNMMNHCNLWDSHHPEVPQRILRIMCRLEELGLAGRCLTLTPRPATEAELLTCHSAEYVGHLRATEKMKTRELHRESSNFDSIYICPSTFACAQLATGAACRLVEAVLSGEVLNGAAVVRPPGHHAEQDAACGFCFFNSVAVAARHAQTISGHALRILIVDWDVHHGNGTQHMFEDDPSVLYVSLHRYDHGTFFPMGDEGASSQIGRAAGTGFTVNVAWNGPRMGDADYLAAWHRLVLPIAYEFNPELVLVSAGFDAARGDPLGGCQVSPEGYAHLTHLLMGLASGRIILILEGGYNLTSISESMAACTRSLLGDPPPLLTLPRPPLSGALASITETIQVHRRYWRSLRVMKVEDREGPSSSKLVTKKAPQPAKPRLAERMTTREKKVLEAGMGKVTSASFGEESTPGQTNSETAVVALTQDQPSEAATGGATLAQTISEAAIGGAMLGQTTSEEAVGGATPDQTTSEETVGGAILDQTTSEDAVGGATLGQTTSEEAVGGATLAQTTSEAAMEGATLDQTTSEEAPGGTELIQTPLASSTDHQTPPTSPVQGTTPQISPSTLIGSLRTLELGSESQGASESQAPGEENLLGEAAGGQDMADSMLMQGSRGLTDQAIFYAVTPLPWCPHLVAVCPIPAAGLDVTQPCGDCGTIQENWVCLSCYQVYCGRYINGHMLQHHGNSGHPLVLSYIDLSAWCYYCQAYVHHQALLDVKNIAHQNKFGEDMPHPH
The assay can be described thus: HDAC6 enzyme inhibitory activity (HDAC-Glo I/II Assay kit). In kind it is biochemical. Conditions: 10 μM; wells without enzyme = 100% inhibition; read-out: HDAC6 inhibitory rate (%) (10 μM). An outline of the steps:
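Luminescent HDAC-Glo I/II readout after 20 min room-temperature reaction with substrate-developer, following 60 min compound–enzyme preincubation. Enzyme: full-length HDAC6 from Sf-9 cells, GST-purified; buffer 24 mM Tris-HCl pH 7.5, 0.01% Tween-20, glutathione, salts. Wells lacking enzyme define 100% inhibition.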

Take `Cn1cc(-c2cccc(F)c2)c(N2Cc3ccc(-c4nnc(C(F)F)o4)cc3C2=O)n1` [Example 384, 6-(5-(difluoro-methyl)-1,3,4-oxadiazol-2-yl)-2-(4-(3-fluoro-phenyl)-1-methyl-1H-pyrazol-3-yl) isoindolin-1-one]: the inhibition at 10 µM was 99%.

Regarding `O=C1c2cc(-c3nnc(C(F)F)o3)ccc2CN1c1ccc(F)cc1-c1cnn(C(F)F)c1` [Example 385, 6-(5-(difluoro-methyl)-1,3,4-oxadiazol-2-yl)-2-(2-(1-(difluoro-methyl)-1H-pyrazol-4-yl)-4-fluorophenyl) isoindolin-1-one], the inhibition at 10 µM was determined as 101%.

In the case of `O=C1c2cc(-c3nnc(C(F)F)o3)ccc2CN1c1ccc(F)cc1-c1cccc(F)c1` [Example 386, 2-(3′,5-difluoro-biphenyl-2-yl)-6-(5-(difluoro-methyl)-1,3,4-oxadiazol-2-yl) isoindolin-1-one], the inhibition at 10 µM worked out at 101%.

`O=C1c2cc(-c3nnc(C(F)F)o3)ccc2CN1c1cccnc1-c1cnn(C(F)F)c1` [Example 387, 6-(5-(difluoro-methyl)-1,3,4-oxadiazol-2-yl)-2-(2-(1-(difluoro-methyl)-1H-pyrazol-4-yl)pyridin-3-yl) isoindolin-1-one]: the inhibition at 10 µM was 101%.

On to `Cn1nc(C(F)(F)F)cc1-c1cc(F)ccc1N1Cc2c(F)cc(-c3nnc(C(F)F)o3)cc2C1=O` [Example 388, 6-(5-(difluoro-methyl)-1,3,4-oxadiazol-2-yl)-4-fluoro-2-(4-fluoro-2-(1-methyl-3-(trifluoro-methyl)-1H-pyrazol-5-yl)phenyl) isoindolin-1-one], for which the inhibition at 10 µM amounted to 101%.

As for `Cn1nc(C(F)(F)F)cc1-c1cc(F)ccc1N1Cc2ccc(-c3nnc(C(F)F)o3)cc2C1=O` [Example 389, 6-(5-(difluoro-methyl)-1,3,4-oxadiazol-2-yl)-2-(4-fluoro-2-(1-methyl-3-(trifluoro-methyl)-1H-pyrazol-5-yl)phenyl) isoindolin-1-one], the inhibition at 10 µM turned out to be 101%.

For `O=C1c2cc(-c3nnc(C(F)F)o3)cc(F)c2CN1c1ccccc1-c1cnn(C(F)F)c1` [Example 390, 6-(5-(difluoro-methyl)-1,3,4-oxadiazol-2-yl)-2-(2-(1-(difluoro-methyl)-1H-pyrazol-4-yl)phenyl)-4-fluoroisoindolin-1-one], the inhibition at 10 µM stood at 100%.

For `N#Cc1cccc(-c2ncccc2N2Cc3ccc(-c4nnc(C(F)F)o4)cc3C2=O)c1` [Example 391, 3-(3-(6-(5-(difluoromethyl)-1,3,4-oxadiazol-2-yl)-1-oxo-1,3-dihydro-2H-isoindol-2-yl)pyridin-2-yl) benzonitrile], the inhibition at 10 µM was determined as 100%.

Turning to `Cn1cc(-c2ccccc2N2Cc3c(F)cc(-c4nnc(C(F)F)o4)cc3C2=O)cn1` [Example 392, 6-(5-(difluoro-methyl)-1,3,4-oxadiazol-2-yl)-4-fluoro-2-(2-(1-methyl-1H-pyrazol-4-yl)phenyl) isoindolin-1-one], the inhibition at 10 µM was 99%.

In the case of `O=C1c2cc(-c3nnc(C(F)F)o3)cc(F)c2CN1c1ccccc1-c1cccc(F)c1` [Example 393, 6-(5-(difluoro-methyl)-1,3,4-oxadiazol-2-yl)-4-fluoro-2-(3′-fluorobiphenyl-2-yl)isoindolin-1-one], the inhibition at 10 µM stood at 99%.

As for `Cn1nc(C(F)(F)F)cc1-c1ccccc1N1Cc2c(F)cc(-c3nnc(C(F)F)o3)cc2C1=O` [Example 394, 6-(5-(difluoro-methyl)-1,3,4-oxadiazol-2-yl)-4-fluoro-2-(2-(1-methyl-3-(trifluoro-methyl)-1H-pyrazol-5-yl)phenyl) isoindolin-1-one], the inhibition at 10 µM was determined as 99%.

Consider `O=C1c2cc(-c3nnc(C(F)F)o3)cnc2CN1Cc1cccc(OC(F)F)c1` [Example 395, 6-(3-(difluoro-methoxy)benzyl)-3-(5-(difluoro-methyl)-1,3,4-oxadiazol-2-yl)-6,7-dihydro-5H-pyrrolo [3,4-b]pyridin-5-one], for which the inhibition at 10 µM was 99%.

Consider `O=C1c2cc(-c3nnc(C(F)F)o3)ccc2CN1c1cccc(F)c1-c1cnn(C(F)F)c1` [Example 396, 6-(5-(difluoro-methyl)-1,3,4-oxadiazol-2-yl)-2-(2-(1-(difluoromethyl)-1H-pyrazol-4-yl)-3-fluorophenyl) isoindolin-1-one], for which the inhibition at 10 µM was 101%.

Turning to `O=C1c2cc(-c3nnc(C(F)F)o3)ccc2CN1c1cccc(F)c1-c1cccc(Cl)c1` [Example 397, 2-(3′-chloro-6-fluorobiphenyl-2-yl)-6-(5-(difluoro-methyl)-1,3,4-oxadiazol-2-yl) isoindolin-1-one], the inhibition at 10 µM was determined as 100%.

For `O=C1c2cc(-c3nnc(C(F)F)o3)ccc2CN1c1cccc(F)c1-c1cccc(F)c1` [Example 398, 2-(3′,6-difluoro-biphenyl-2-yl)-6-(5-(difluoro-methyl)-1,3,4-oxadiazol-2-yl) isoindolin-1-one], the inhibition at 10 µM turned out to be 102%.

On to `O=C1c2cc(-c3nnc(C(F)F)o3)ccc2CN1[C@@H]1CCOC[C@H]1NCC(F)(F)F` [Example 399, 6-(5-(difluoromethyl)-1,3,4-oxadiazol-2-yl)-2-((3S,4R)-3-((2,2,2-trifluoroethyl)amino)tetrahydro-2H-pyran-4-yl)isoindolin-1-one], for which the inhibition at 10 µM worked out at 101%.

In the case of `O=C1c2cc(-c3nnc(C(F)F)o3)cnc2CN1[C@@H]1CCOC[C@H]1NCC(F)(F)F` [Example 400, 3-(5-(difluoro-methyl)-1,3,4-oxadiazol-2-yl)-6-((3S,4R)-3-((2,2,2-trifluoro-ethyl)amino)tetrahydro-2H-pyran-4-yl)-6,7-dihydro-5H-pyrrolo[3,4-b] pyridin-5-one], the inhibition at 10 µM is 99%.

Turning to `N#Cc1cccc(-c2c(Cl)cccc2N2Cc3ccc(-c4nnc(C(F)F)o4)cc3C2=O)c1` [Example 401, 2′-chloro-6′-(6-(5-(difluoro-methyl)-1,3,4-oxadiazol-2-yl)-1-oxo-1,3-dihydro-2H-isoindol-2-yl) biphenyl-3-carbonitrile], the inhibition at 10 µM is 99%.

`O=C1c2cc(-c3nnc(C(F)F)o3)ccc2CN1c1cccc(Cl)c1-c1cnn(C(F)F)c1` [Example 402, 2-(3-chloro-2-(1-(difluoro-methyl)-1H-pyrazol-4-yl)phenyl)-6-(5-(difluoro-methyl)-1,3,4-oxadiazol-2-yl) isoindolin-1-one]: the inhibition at 10 µM came out at 100%.

With `Cn1cc(-c2c(Cl)cccc2N2Cc3ccc(-c4nnc(C(F)F)o4)cc3C2=O)cn1` [Example 403, 2-(3-chloro-2-(1-methyl-1H-pyrazol-4-yl)phenyl)-6-(5-(difluoro-methyl)-1,3,4-oxadiazol-2-yl) isoindolin-1-one], the inhibition at 10 µM turned out to be 102%.

For `O=C1c2cc(-c3nnc(C(F)F)o3)ccc2CN1c1cccc(Cl)c1-c1cccc(F)c1` [Example 404, 2-(6-chloro-3′-fluoro-biphenyl-2-yl)-6-(5-(difluoro-methyl)-1,3,4-oxadiazol-2-yl) isoindolin-1-one], the inhibition at 10 µM stood at 100%.

For `O=C1c2cc(-c3nnc(C(F)F)o3)ccc2CN1c1ccc(Cl)cc1-c1cnn(C(F)F)c1` [Example 405, 2-(4-chloro-2-(1-(difluoro-methyl)-1H-pyrazol-4-yl)phenyl)-6-(5-(difluoro-methyl)-1,3,4-oxadiazol-2-yl) isoindolin-1-one], the inhibition at 10 µM is 101%.
